In patent US20230149146A1, “AN AUTOMATED CONTROLLED RELEASE DEVICE FOR LIVESTOCK MANAGEMENT AND METHODS OF USE THEREOF” (CORNELL UNIVERSITY, priority 2020, published 2023):
Entries after “also recorded” stand apart in the source; their conditions may differ. Marks after values point to notes of the source that are not given here. Where no end group is shown, it is not given here.

Columns and labels:
[1] = tested on: lactating Holstein cows; assay: Luteal regression and plasma P4 after IVG (catheter) or im PGF, first study and follow-up; type: in vivo, cow
Experimental: Catheters were employed to deliver IVG hormones in lactating Holstein cows. […] In a first study, regression of the corpus luteum (“CL regression”) and plasma P4 concentrations after IVG delivery of 25, 50, or 125 mg PGF (Dinoprost) or of saline 7.5 days after induction of ovulation by Ovsynch injections was evaluated. A positive control group received 25 mg of PGF im (i.e., by intramuscular injection), enabling a comparison of outcomes with im PGF to those with IVG PGF.

[2] = tested on: cows; assay: Larger experiment: physiological outcomes for cows treated with PGF im or IVG; type: in vivo, cow
Source text: The PGF experiments' ability to show equal luteal regression with im and IVG administration was limited by small N. Data from a larger, more recent experiment supports non-inferiority for IVG compared to im delivery of PGF to induce luteal regression. […] [table]

[3] = tested on: lactating Holstein cows; assay: Proof-of-concept: luteal regression by IVG PGF from single-chamber prototype device; type: in vivo, cow; settings: two 50-mg doses of PGF 12 hours apart via prototype (e-Synch PGF); FIG. 13
Experimental: Lactating Holstein cows were randomized to receive two 50-mg doses of PGF 12 hours apart, or an equal amount of saline solution (negative control), or two 25-mg doses of PGF IVG (IVG positive control), or a single 25-mg dose of PGF im (im positive control). There were four cows in each group (except for saline, two cows). […] In short, administration worked as well as standard injections.

[4] = tested on: lactating Holstein cows; assay: In-vivo validation of automated IVG device: circulating P4 after PGF2α; set-up: species or system cow
Source text: The objective was to develop and validate an electronically-controlled hormone delivery device for reproductive control of cattle. […] The IVG device comprises an outer 3D-printed plastic housing, fluid reservoirs connected to delivery pumps and tubing, a programmable circuit board, and a retention mechanism. For in-vitro testing, 4 pumps were programmed to release different target volumes (0.1, 0.2, 0.5, 1.0, and 2.0 g) in 4 replicates (n=80). A Bland-Altman plot was constructed to assess the magnitude of disagreement between expected and delivered volumes. Observations fell within acceptable limits of agreement (1.96 SD) >95% of the time, indicating overall good agreement (mean difference=−0.005 g). To assess in-vivo performance of the IVG device, lactating Holstein cows with at least 1 corpus luteum ≥15 mm in diameter were randomly allocated to 1 of 3 treatments: IM-PGF (n=6); two 25 mg intramuscular doses of PGF (Dinoprost) 24 h apart, DEV-PGF (n=6); four 25 mg doses of PGF released automatically by the IVG device every 12 h, and DEV-CTL (n=4); insertion of an empty IVG device (placebo control). Blood samples were collected at 0, 12, 24, 36, 48, and 72 h after treatment. Data was analyzed by ANOVA with repeated measures in SAS. All devices (12/12) remained in situ until removed at 48-h. Progesterone (P4) concentrations from 0 to 72 h were affected by treatment, time, and their interaction.
To assess IVG device performance in vivo, lactating nonpregnant primiparous and multiparous Holstein cows from the dairy unit of the Cornell University Ruminant Center (Harford, N.Y.) were enrolled in an experiment. Cows were housed in freestall barns with concrete flooring, self-locking head gates, and fans and sprinklers in the feedline. Cows were milked thrice daily at approximately 8-h intervals and were fed a TMR once a day with ad libitum access to feed and water.
All cows enrolled received a GnRH treatment (200 μg of gonadorelin acetate given intramuscular, Gonabreed, Parnell Pharmaceuticals, Overland Park, Kans., USA) at 40±3 DIM. Seven days later, transrectal ultrasonography (TUS) of the ovaries was performed using a 7.5-MHz linear probe (Ibex Pro; E. I. Medical Imagining, Loveland, Colo.). Cows with […] corpus luteum (CL) ≥15 mm in diameter (n=16) were randomly allocated to 1 of 3 treatments: IM-PGF (n=6), DEV-PGF (n=6), and DEV-CTRL (n=4). Cows in IM-PGF received 2 treatments of 25 mg of PGF2α (12.5 mg/mL of dinoprost tromethamine; Lutalyse HighCon, Zoetis, New York, N.Y.) 24 h apart as a 2 mL injection in the semimembranosus or semitendinosus muscle. Cows in DEV-PGF received 1 IVG device programmed to automatically release 4 doses of 25 mg of PGF2α at ˜12 h intervals (first dose released at time 0). Cows in the DEV-CTRL treatment received an IVG device without PGF2α to serve as a placebo control for the presence of the device in the vagina. All devices were removed at 48 h after insertion.
Blood samples (˜8 to 9 mL) were collected at time 0 and at 12, 24, 36, 48, and 72 h after treatment by puncture of caudal blood vessels using heparinized evacuated tubes (Vacutainer; BD, Franklin Lakes, N.J.). Samples were centrifuged at 2,000×g for 20 min at 4° C. Plasma aliquots were harvested and stored at −20° C. until assayed for progesterone (P4) in duplicate in 3 RIA assays performed as described in Beam, S. W., et al., “Energy balance and ovarian follicle development prior to the first ovulation postpartum in dairy cows receiving three levels of dietary fat.” Biol. Reprod. 56:133-142 (1997), the disclosure of which is incorporated herein by reference in its entirety. The average intra-assay coefficient of variation (CV) was 13.2% whereas the interassay CV was 17.0%. […]

[5] = tested on: lactating Holstein cows; assay: Luteal regression and plasma P4 after IVG (catheter) or im PGF, first study and follow-up; type: in vivo, cow; settings: for CLR % (complete luteal regression, P4 < 1 ng/mL) / P4 (ng/mL): PGF25-2X-IVG: two IVG boluses 25 mg PGF 12 h apart
[6] = tested on: lactating Holstein cows; assay: LH response after IVG delivery of GnRH; type: in vivo, cow; settings: citric acid as absorption enhancer
Experimental: LH response of lactating Holstein cows after IVG delivery of GnRH was evaluated. Cows received IVG GnRH (Gonadorelin) at a standard dose of 100 μg, or at doses of 500 or 1,000 μg without and with citric acid as an absorption enhancer. A positive control group received 100 μg GnRH im and a negative control group received saline IVG.

[7] = PGF25-IM: single im bolus 25 mg PGF, 60 h after treatment
[8] = PGF25-IM: single im bolus 25 mg PGF, 72 h after treatment
[9] = PGF25-IVG: single IVG bolus 25 mg PGF, 60 h after treatment
[10] = PGF25-IVG: single IVG bolus 25 mg PGF, 72 h after treatment
[11] = IVG: two 25 mg doses of PGF 12 h apart

What does the source list for CCCCC[C@H](O)/C=C/[C@@H]1[C@@H](C/C=C\CCCC(=O)O)[C@@H](O)C[C@H]1O [PGF, prostaglandin F2α]?
CLR % (complete luteal regression, P4 < 1 ng/mL) [1, 7]: 86^b %; P4 (ng/mL) [1, 7]: 0.67 ± 0.23^bc ng/mL; CLR % (complete luteal regression, P4 < 1 ng/mL) [1, 8]: 86^b %; P4 (ng/mL) [1, 8]: 0.57 ± 0.24^c ng/mL; CLR % (complete luteal regression, P4 < 1 ng/mL) [1, 9]: 42^b %; P4 (ng/mL) [1, 9]: 1.74 ± 0.50^b ng/mL; CLR % (complete luteal regression, P4 < 1 ng/mL) [1, 10]: 42^b %; P4 (ng/mL) [1, 10]: 2.24 ± 0.64^b ng/mL; Estrus after PGF, % (increased physical activity within 72 h of treatment) ([2]; IM: 25 mg of PGF im): 47.0%; Ovulation, % (in response to GnRH given within 72 h of PGF treatment) ([2]; IM: 25 mg of PGF im): 88.0%; P4 (ng/mL) at 48 h ([2]; IM: 25 mg of PGF im): 0.4 ± 0.1 ng/mL; P4 (ng/mL) at 72 h ([2]; IM: 25 mg of PGF im): 0.4 ± 0.1 ng/mL; CL regression, % (P4 from >1 ng/mL at treatment to <0.5 ng/mL 72 h after) ([2]; IM: 25 mg of PGF im (Dinoprost), n = 169): 81.1%; Estrus after PGF, % (increased physical activity within 72 h of treatment) [2, 11]: 51.1%; Ovulation, % (in response to GnRH given within 72 h of PGF treatment) [2, 11]: 84.1%; P4 (ng/mL) at 48 h [2, 11]: 0.5 ± 0.1 ng/mL; P4 (ng/mL) at 72 h [2, 11]: 0.6 ± 0.1 ng/mL; CL regression, % (P4 from >1 ng/mL at treatment to <0.5 ng/mL 72 h after) ([2]; IVG: two 25 mg doses of PGF 12 h apart (Dinoprost), n = 179): 81.0%; pattern of P4 decline [3]: consistent with CL regression and similar to that of cows in the positive control groups; P4, one cow ([4]; DEV-PGF (four 25 mg doses by IVG device every 12 h), 36 h after treatment): 1.20 ng/mL; P4 concentrations compared with placebo device control ([4]; DEV-PGF and IM-PGF vs DEV-CTRL, from 24 to 72 h): lesser P4 than cows in DEV-CTL; also recorded: lesser concentrations of P4 than cows in the DEV-CTRL treatment; P4, all other cows ([4]; DEV-PGF and IM-PGF, 36 h after treatment): < 1 ng/mL; P4, all other cows, end of the sampling period ([4]; DEV-PGF and IM-PGF, 72 h): < 0.5 ng/mL; luteal regression by PGF delivered automatically by the device ([4]; DEV-PGF, lactating dairy cows): successful induction of luteal regression; also recorded: complete luteal regression; P4, one cow ([4]; IM-PGF (two 25 mg im doses 24 h apart), 36 h after treatment): 1.21 ng/mL; P4, one cow, end of the sampling period ([4]; IM-PGF, 72 h): 0.50 ng/mL; P4 concentrations, DEV-PGF compared with IM-PGF ([4]; entire sampling period, 0 to 72 h): did not differ; CLR % (complete luteal regression, P4 < 1 ng/mL) ([5]; 60 h after treatment): 100^b %; P4 (ng/mL) ([5]; 60 h after treatment): 0.19 ± 0.04^c ng/mL; CLR % (complete luteal regression, P4 < 1 ng/mL) ([5]; 72 h after treatment): 100^b %; P4 (ng/mL) ([5]; 72 h after treatment): 0.21 ± 0.07^c ng/mL; CL regression, single bolus of IVG PGF compared with im PGF ([5]; single IVG bolus (25, 50 or 125 mg) vs 25 mg im): less effectual than im PGF; cows that experienced complete CL regression ([5]; two 25 mg boluses of IVG PGF 12 hours apart, follow-up experiment): 100%; blood/plasma progesterone after treatment compared with im PGF ([5]; two IVG boluses 25 mg PGF 12 h apart (PGF25-2X-IVG) vs PGF25-IM, FIG. 10): indistinguishable from a single dose intramuscular injection of PGF; luteolytic response compared with single im injection ([5]; two IVG boluses of PGF 12 hours apart, summary of the PGF experiments): comparable luteolytic response to a single intramuscular injection of PGF

“gonadotropin releasing hormone (QHWSYGLRPG; ends and bridges not checked; UniProt P01148 24-33, looked up) [GnRH, releasing hormone that triggers LH release]” was tested. Which “effect of adding 10% citric acid to the GnRH mixture” value [6] did it give?
Its value is “necessary for efficacy of IVG GnRH”.
